From PubChem BioAssay AID1963848 (Molecular Pharmacology Branch, DTP, NCI, 2024)

Test system: 379773-124-R-J2-PDC spheroid viability
Assay: Anticancer human tumor 379773-124-R-J2-PDC patient-derived endometrial carcinoma cell line growth inhibition [POLQ]
Settings: spheroids with HUVEC and MSC; for IC50: curve of first compound; for viability, T/C: stronger effect = lower value
Description: Multicellular complex tumor spheroid response to Polymerase (POL) inhibitors (novobiocin, ART-558, RP6685) in combination with a variety of drugs and investigational agents in selected tumor cell lines
The POL inhibitors (novobiocin, ART-558, and RP6685) were evaluated both individually and in combination with standard of care and investigational anticancer small molecules within a complex spheroid model of solid tumors. . Complex spheroids include a stromal component modeled by human endothelial cells (HUVEC) and fibroblasts modeled by human mesenchymal stem cells (MSCs). The concentration ranges selected for each drug and investigational agent were based upon clinically achievable concentrations if the clinical Cmax of the agent was known.
Compounds. The drugs and investigational agents: novobiocin (NSC847541), ART-558 (NSC835418), RP-6685 (NSC848927), peposertib (NSC802822), ceralasertib (NSC780249), elimusertib (NSC800525), camonsertib (NSC841442), AZD-1390 (NSC803789), olaparib (NSC753686), talazoparib (NSC767125), rucaparib (NSC756644), sotorasib (NSC818433), MRTX-1133 (NSC836407), SN-38 (NSC673596), topotecan (NSC609699), epotoside (NSC141540), doxorubicin (NSC123127), gemcitabine (NSC613327), 5-fluorouracil (NSC19893), paclitaxel (NSC125973), vemurafenib (NSC761431), MSA-2 (NSC828583), SN-011 (NSC837082), adavosertib (NSC754352), prexasertib (NSC758257), carboplatin (NSC241240) and oxaliplatin (NSC266046), were obtained from the National Cancer Institute (NCI) Developmental Therapeutics Program Chemical Repository (21). The FDA-approved anticancer drug set is available from the Developmental Therapeutics Program at https://dtp.cancer.gov/organization/dscb/obtaining/. […] The stock solutions were prepared in dimethyl sulfoxide (DMSO, Sigma-Aldrich, St. Louis, MO, cat. D2650), except for the platinum compounds which were prepared in saline (Quality Biological, Gaithersburg, MD, cat. 114-055-101), at 800-fold the tested concentration and stored at -70 degrees C prior to their use. All drugs and investigational agents were tested over a range starting from a high concentration at or near the clinical Cmax and decreasing in half-log increments. If the clinical Cmax for an agent had not been determined, the highest concentration tested was 10 microM, except for SN-38, which was tested at a high concentration of 1 microM.
Cell Culture. All cells were maintained in an incubator at 37 degrees C and 5% CO2 with 95% humidity. The PDC lines were cultured according to standard operating procedures established by the NCI PDMR (https://pdmr.cancer.gov). Table 3 of the manuscript, lists the cell lines along with the number of the three cell types plated to form the mct-spheroids and media for tumor cell growth. After thawing, all PDC lines, except 997537-175-T-J1-PDC and 415267-285-R-J2-PDC, were cultured in Matrigel-coated flasks prepared with a working solution of 1X Ham's F-12 nutrient mix, without supplementation (Thermo Fisher Scientific, cat. 11765054), 100 U/mL penicillin-streptomycin (Thermo Fisher Scientific, cat. 15140122), and 2.5% Matrigel (Corning Inc., Corning, NY, cat. 354248) for the first three passages. The two PDC lines 997537-175-T-J1-PDC and 415267-285-R-J2-PDC were cultured on uncoated flasks. The 857933-349-R-J2-PDC line was cultured in 6C/Colon 1B media containing advanced DMEM/F-12 (Thermo Fisher Scientific, cat. 12634028), 10 mM HEPES (Thermo Fisher Scientific, cat. 15630080), 1X GlutaMAX supplement (Thermo Fisher Scientific, cat. 35050061), 0.1 mg/mL primocin (InvivoGen, San Diego, CA, cat. ant-pm-2), 10% defined fetal bovine serum, heat inactivated (HyClone Laboratories Inc., Logan, UT, cat. SH30070.03HI), 50% L-WRN conditioned media (ATCC, cat. CRL-3276), 1.25 mM N-Acetyl-L-cysteine (Sigma-Aldrich, cat. A9165), 10 mM nicotinamide (Sigma-Aldrich, cat. N0636), 1X B-27 supplement (Thermo Fisher Scientific, cat. 17504044), 1X N-2 supplement (Thermo Fisher Scientific, cat. […]
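Note: spheroids exposed to drugs for seven days before readout.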
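Throughout, for viability, T/C: percent viability relative to DMSO vehicle control taken as 100%.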

## COc1cccc2c1C(=O)c1c(O)c3c(c(O)c1C2=O)CC(O)(C(=O)CO)CC3OC1CC(N)C(O)C(C)O1 (configuration not stated) + COC1C(OC(N)=O)C(O)C(Oc2ccc3c(O)c(NC(=O)c4ccc(O)c(CC=C(C)C)c4)c(=O)oc3c2C)OC1(C)C
Second compound 0.0316 µM
  IC50: 56.8 nM
Second compound 0.1 µM
  IC50: 64.4 nM
Second compound 0.316 µM
  IC50: 66 nM
Second compound 1 µM
  IC50: 61.8 nM
Second compound 3.16 µM
  IC50: 55.6 nM
Second compound 10 µM
  IC50: 58.5 nM
Second compound 0.0316 µM, first compound 0.0316 µM
  viability, T/C: 77.5%
Second compound 0.0316 µM, first compound 0.1 µM
  viability, T/C: 23.3%
Second compound 0.0316 µM, first compound 0.316 µM
  viability, T/C: 6.61%
Second compound 0.0316 µM, first compound 1 µM
  viability, T/C: 6.45%
Second compound 0.0316 µM, first compound 3.16 µM
  viability, T/C: 0.84%
Second compound 0.0316 µM, first compound 10 µM
  viability, T/C: 0.73%
Second compound 0.1 µM, first compound 0.0316 µM
  viability, T/C: 85.7%
Second compound 0.1 µM, first compound 0.1 µM
  viability, T/C: 27.9%
Second compound 0.1 µM, first compound 0.316 µM
  viability, T/C: 6.63%
Second compound 0.1 µM, first compound 1 µM
  viability, T/C: 6.52%
Second compound 0.1 µM, first compound 3.16 µM
  viability, T/C: 1%
Second compound 0.1 µM, first compound 10 µM
  viability, T/C: 0.1%
Second compound 0.316 µM, first compound 0.0316 µM
  viability, T/C: 83.4%
Second compound 0.316 µM, first compound 0.1 µM
  viability, T/C: 31.3%
Second compound 0.316 µM, first compound 0.316 µM
  viability, T/C: 8.56%
Second compound 0.316 µM, first compound 1 µM
  viability, T/C: 7.02%
Second compound 0.316 µM, first compound 3.16 µM
  viability, T/C: 1.52%
Second compound 0.316 µM, first compound 10 µM
  viability, T/C: 1.06%
Second compound 1 µM, first compound 0.0316 µM
  viability, T/C: 82.8%
Second compound 1 µM, first compound 0.1 µM
  viability, T/C: 26.2%
Second compound 1 µM, first compound 0.316 µM
  viability, T/C: 8.01%
Second compound 1 µM, first compound 1 µM
  viability, T/C: 5.55%
Second compound 1 µM, first compound 3.16 µM
  viability, T/C: 1.26%
Second compound 1 µM, first compound 10 µM
  viability, T/C: 0.1%
Second compound 3.16 µM, first compound 0.0316 µM
  viability, T/C: 75.7%
Second compound 3.16 µM, first compound 0.1 µM
  viability, T/C: 23.2%
Second compound 3.16 µM, first compound 0.316 µM
  viability, T/C: 6.39%
Second compound 3.16 µM, first compound 1 µM
  viability, T/C: 6.03%
Second compound 3.16 µM, first compound 3.16 µM
  viability, T/C: 1.65%
Second compound 3.16 µM, first compound 10 µM
  viability, T/C: 0.73%
Second compound 10 µM, first compound 0.0316 µM
  viability, T/C: 84%
Second compound 10 µM, first compound 0.1 µM
  viability, T/C: 19.4%
Second compound 10 µM, first compound 0.316 µM
  viability, T/C: 7.68%
Second compound 10 µM, first compound 1 µM
  viability, T/C: 5.68%
Second compound 10 µM, first compound 3.16 µM
  viability, T/C: 0.98%
Second compound 10 µM, first compound 10 µM
  viability, T/C: 0.19%
